Assay [1] deals with MIA PaCa-2 Human Pancreas carcinoma cells. As to the kind of experiment: in vitro amino acid uptake in MIA PaCa-2 cells. It counts as cell-based. The protocol: (§1) Compounds have been evaluated in vitro for tumor binding specificity (i.e. uptake cells) using a variety of tumor cell lines available in the art, along with reference compounds such as Me-AlB and BCH. Detailed description of these assays can be found in Martarello et al. (2002) Journal of Medicinal Chemistry, 45:2250-2259 and McConathy et al. (2003) Nuclear Medicine and Biology, 30:477-490. […]
(§2) In the in vitro studies the uptake rate of each amino acid compound is measured in each tumor line, as well as the dominant transport mechanisms of each tumor cell line. After trypsinization, cells are resuspended in serum-free media, then counted on a hemocytometer, with viability assessed through Trypan blue staining. […] The vials are placed in a Cobra-II gamma counter (Packard, Meriden, Conn.), with the activity per cell number determined. […] Saline washes are performed as described above, and the filtered cells' radioactivity determined on the gamma counter. […]
(§3) The uptake of all compounds were measured in human and rat cancer cell lines and the dominant transport (“A” and “L”) mechanism of each culture were determined. […]

The test system of assay [2] is LnCap Human Prostate carcinoma cells. As to the kind of experiment: in vitro amino acid uptake in LnCap cells. It counts as cell-based. The protocol:
as §1, §2, §3

For the molecule `N[C@]1(C(=O)O)CCC[C@@H]1[18F]` (single isomer, unassigned; enantiomer 1) [Enantiomer 1, anti-2-[^18F]FACPC], the entries for the “% Dose uptake per 0.5 × 10−6 Cells” value in assay [1] and in assay [2] were 6.8 % Dose/0.5 × 10^−6 and 6.5 % Dose/0.5 × 10^−6, respectively.

The values above are taken from patent US20130123618A1, “Imaging Agents” (priority 2008, published 2013).
